In patent US10294202B2, “Pyrrolidinones as herbicides” (FMC Corporation, priority 2013, dated 2019):

Experiments:
[1] = tested on: blackgrass; assay: Test D pre-/postemergence herbicide test; assay type: in vivo, Alopecurus myosuroides; details: for Plant response rating: Blackgrass, scale 0 to 100; for Plant response rating, Blackgrass: scale 0 to 100 (0 no effect, 100 complete control)
From the text: (§1) Seeds of plant species selected from bluegrass (annual bluegrass, Poa annua), blackgrass (Alopecurus myosuroides), canarygrass (littleseed canarygrass, Phalaris minor), chickweed (common chickweed, Stellaria media), galium (catchweed bedstraw, Galium aparine), bromegrass, downy (downy bromegrass, Bromus tectorum), field poppy (Papaver rhoeas), field violet (Viola arvensis), foxtail, green (green foxtail, Setaria viridis), deadnettle (henbit deadnettle, Lamium amplexicaule), ryegrass, Italian (Italian ryegrass, Lolium multiflorum), kochia (Kochia scoparia), lambsquarters (Chenopodium album), oilseed rape (Brassica napus), pigweed (Amaranthus retroflexus), chamomile (scentless chamomile, Matricaria inodora), Russian thistle (Salsola kali), speedwell (bird's-eye speedwell, Veronica persica), barley, spring (spring barley, Hordeum vulgare), wheat, spring (spring wheat, Triticum aestivum), buckwheat, wild (wild buckwheat, Polygonum convolvulus), mustard, wild (wild mustard, Sinapis arvensis), oat, wild (wild oat, Avena fatua), radish, wild (wild radish, Raphanus raphanistrum), […]), barley, winter (winter barley, Hordeum vulgare), and wheat, winter (winter wheat, Triticum aestivum) were planted into a silt loam soil and treated preemergence with test chemicals formulated in a non-phytotoxic solvent mixture which included a surfactant. At the same time, these species were planted in pots containing Redi-Earth® planting medium (Scotts Company, 14111 Scottslawn Road, Marysville, Ohio 43041) comprising spaghnum peat moss, vermiculite, wetting agent and starter nutrients and treated with postemergence applications of the test chemicals formulated in the same manner. Plants ranged in height from 2 to 18 cm (1- to 4-leaf stage). Treated plants and controls were maintained in a controlled growth environment for 7 to 21 days after which time all species were compared to controls and visually evaluated. Plant response ratings, summarized in Table D, are based on a scale of 0 to 100 where 0 is no effect and 100 is complete control. A dash (-) response means no test result.

[2] = tested on: field violet; assay: Test D pre-/postemergence herbicide test; assay type: in vivo, Viola arvensis; details: for Plant response rating: Field Violet, scale 0 to 100; for Plant response rating, Field Violet: scale 0 to 100 (0 no effect, 100 complete control)
From the text: as §1

[3] = tested on: surinam grass; assay: Test C pre-/postemergence herbicide test; assay type: in vivo, Brachiaria decumbens
From the text: (§2) Seeds of plant species selected from blackgrass (Alopecurus myosuroides), ryegrass, Italian (Italian ryegrass, Lolium multiflorum), wheat (winter wheat, Triticum aestivum), galium (catchweed bedstraw, Galium aparine), corn (Zea mays), crabgrass, large (large crabgrass, Digitaria sanguinalis), foxtail, giant (giant foxtail, Setaria faberii), johnsongrass (Sorghum halepense), lambsquarters (Chenopodium album), morningglory (Ipomoea coccinea), nutsedge, yellow (yellow nutsedge, Cyperus esculentus), pigweed (Amaranthus retroflexus), ragweed (common ragweed, Ambrosia elatior), soybean (Glycine max), barnyardgrass (Echinochloa crus-galli), oilseed rape (Brassica napus), waterhemp (common waterhemp, Amaranthus rudis), kochia (Kochia scoparia), oat, wild (wild oat, Avena fatua), surinam grass (Brachiaria decumbens), foxtail, green (green foxtail, Setaria viridis), goosegrass (Eleusine indica), bromegrass, downy (downy bromegrass, Bromus tectorum), nightshade (eastern black nightshade, Solanum ptycanthum), cocklebur (common cocklebur, Xanthium strumarium), cupgrass, woolly (woolly cupgrass, Eriochloa villosa), bermudagrass (Cynodon dactylon), sunflower, (common oilseed sunflower, Helianthus annuus), Russian thistle (Salsola kali) and velvetleaf (Abutilon theophrasti) were planted into a blend of loam soil and sand and treated preemergence with test chemicals formulated in a non-phytotoxic solvent mixture which included a surfactant. At the same time, plants selected from these crop and weed species and also barley (winter barley, Hordeum vulgare), […]), chickweed (common chickweed, Stellaria media), deadnettle (henbit deadnettle, Lamium amplexicaule), and canarygrass (littleseed canarygrass, Phalaris minor) were planted in pots containing Redi-Earth® planting medium (Scotts Company, 14111 Scottslawn Road, Marysville, Ohio 43041) comprising spaghnum peat moss, vermiculite, wetting agent and starter nutrients and treated with postemergence applications of test chemicals formulated in the same manner. Plants ranged in height from 2 to 18 cm (1- to 4-leaf stage) for postemergence treatments. Treated plants and controls were maintained in a greenhouse for 13 to 15 days, after which time all species were compared to controls and visually evaluated. Plant response ratings, summarized in Table C, are based on a scale of 0 to 100 where 0 is no effect and 100 is complete control. A dash (-) response means no test result.

[4] = tested on: bromegrass, downy; assay: Test C pre-/postemergence herbicide test; assay type: in vivo, Bromus tectorum
From the text: as §2

[5] = tested on: goosegrass; assay: Test C pre-/postemergence herbicide test; assay type: in vivo, Eleusine indica
From the text: as §2

[6] = Preemergence, 62 g ai/ha, scale 0 to 100
[7] = Preemergence, 125 g ai/ha, scale 0 to 100 (0 no effect, 100 complete control)
[8] = Preemergence, 31 g ai/ha, scale 0 to 100 (0 no effect, 100 complete control)
[9] = Postemergence, 16 g ai/ha, scale 0 to 100 (0 no effect, 100 complete control)
[10] = Postemergence, 31 g ai/ha, scale 0 (no effect) to 100 (complete control)
[11] = Postemergence, 62 g ai/ha, scale 0 to 100 (0 no effect, 100 complete control)
[12] = Postemergence, 125 g ai/ha, scale 0 to 100 (0 no effect, 100 complete control)
[13] = Preemergence, 16 g ai/ha, scale 0 to 100
[14] = Postemergence, 250 g ai/ha, scale 0 to 100 (0 no effect, 100 complete control)
[15] = Preemergence, 31 g ai/ha, scale 0 to 100, 0 is no effect and 100 is complete control

Compound | Plant response rating ([1]; Postemergence, 31 g ai/ha) | Plant response rating ([1]; Postemergence, 62 g ai/ha) | Plant response rating ([1]; Postemergence, 125 g ai/ha) | Plant response rating, Blackgrass ([1]; Preemergence, 62 g ai/ha) | Plant response rating, Blackgrass ([1]; Preemergence, 31 g ai/ha) | Plant response rating ([1]; Preemergence, 125 g ai/ha) | Plant response rating ([1]; Preemergence, 250 g ai/ha) | Plant response rating ([2]; Postemergence, 31 g ai/ha) | Plant response rating ([2]; Postemergence, 62 g ai/ha) | Plant response rating ([2]; Postemergence, 125 g ai/ha) | Plant response rating, Field Violet ([2]; Preemergence, 62 g ai/ha) | Plant response rating, Field Violet ([2]; Preemergence, 31 g ai/ha) | Plant response rating ([2]; Preemergence, 125 g ai/ha) | Plant response rating ([2]; Preemergence, 250 g ai/ha) | Plant response rating, Surinam Grass [3, 6] | Plant response rating, Surinam Grass [3, 7] | Plant response rating, Bromegrass, Downy [4, 6] | Plant response rating, Bromegrass, Downy [4, 7] | Plant response rating, Goosegrass [5, 6] | Plant response rating, Goosegrass [5, 7] | further results
O=C1NCC(c2ccc(F)c(F)c2)C1C(=O)Nc1ccccc1C(F)(F)F (racemic) [Compound 6] | 0 | 5 | 5 | 0 | 0 | 0 | 0 | 0 | 20 | 20 | 0 | 0 | 0 | 0 | – | – | – | – | – | – | Plant response rating ([1]; Postemergence, 16 g ai/ha): 0; Plant response rating ([1]; Postemergence, 250 g ai/ha): 10; Plant response rating, Blackgrass ([1]; Preemergence, 16 g ai/ha): 0; Plant response rating ([2]; Postemergence, 16 g ai/ha): 0; Plant response rating ([2]; Postemergence, 250 g ai/ha): 25; Plant response rating, Field Violet ([2]; Preemergence, 16 g ai/ha): 0
O=C1NCC(c2ccc(F)c(C(F)(F)F)c2)C1C(=O)Nc1cccc(F)c1F (racemic) [Compound 77] | – | – | – | 25 | 10 | 40 | 65 | – | – | – | 20 | 15 | 20 | 55 | – | – | – | – | – | – | –
O=C1NCCC1C(=O)N(c1ccc(F)c(F)c1)c1ccccc1F (stereo not shown) [Compound 5, N-(3,4-difluorophenyl)-N-(2-fluorophenyl)-2-oxo-3-pyrrolidinecarboxamide] | – | – | – | – | – | – | – | – | – | – | – | – | – | – | 85 | 95 | 0 | 0 | 0 | 0 | Bromegrass, Downy plant response rating [4, 8]: 0; Plant response rating, Bromegrass, Downy ([4]; Preemergence, 250 g ai/ha, scale 0 to 100 (0 no effect, 100 complete control)): 0; Goosegrass plant response rating [5, 8]: 0
O=C1NCC(c2cc(F)c(F)c(F)c2)C1C(=O)Nc1cccc(F)c1F (stereo not shown) [Compound 48] | – | – | – | – | – | – | – | – | – | – | – | – | – | – | 75 | 85 | 0 | 0 | 10 | 15 | Plant response rating, Surinam Grass [3, 9]: 0; Plant response rating, Surinam Grass [3, 10]: 5; Plant response rating, Surinam Grass [3, 11]: 25; Plant response rating, Surinam Grass [3, 12]: 25; Plant response rating, Surinam Grass [3, 13]: 10; Plant response rating, Bromegrass, Downy [4, 9]: 0; Plant response rating, Bromegrass, Downy [4, 10]: 0; Plant response rating, Bromegrass, Downy [4, 11]: 0; Plant response rating, Bromegrass, Downy [4, 12]: 0; Plant response rating, Bromegrass, Downy [4, 13]: 0; Bromegrass, Downy plant response rating [4, 8]: 0; Plant response rating, Goosegrass [5, 9]: 10; Plant response rating, Goosegrass [5, 10]: 10; Plant response rating, Goosegrass [5, 11]: 10; Plant response rating, Goosegrass [5, 12]: 10; Plant response rating, Goosegrass [5, 13]: 0; Goosegrass plant response rating [5, 8]: 0
O=C1NCC(c2cc(F)c(F)cc2F)C1C(=O)Nc1cccc(F)c1F (stereo not shown) [Compound 50] | 0 | 0 | 0 | 0 | 0 | 0 | – | 0 | 0 | 0 | 0 | 0 | 0 | – | – | – | – | – | – | – | Plant response rating, Surinam Grass [3, 10]: 5; Plant response rating, Surinam Grass [3, 11]: 5; Plant response rating, Surinam Grass [3, 12]: 5; Plant response rating, Surinam Grass [3, 14]: 15; Plant response rating, Bromegrass, Downy [4, 10]: 0; Plant response rating, Bromegrass, Downy [4, 11]: 0; Plant response rating, Bromegrass, Downy [4, 12]: 0; Plant response rating, Bromegrass, Downy [4, 14]: 0; Plant response rating ([1]; Postemergence, 16 g ai/ha): 0; Plant response rating, Blackgrass ([1]; Preemergence, 16 g ai/ha): 0; Plant response rating ([2]; Postemergence, 16 g ai/ha): 0; Plant response rating, Field Violet ([2]; Preemergence, 16 g ai/ha): 0; Plant response rating, Goosegrass [5, 10]: 25; Plant response rating, Goosegrass [5, 11]: 25; Plant response rating, Goosegrass [5, 12]: 25; Plant response rating, Goosegrass [5, 14]: 25
O=C1NCC(c2ccc(F)c(Cl)c2)C1C(=O)Nc1ccccc1F (stereo not shown) [Compound 60] | – | – | – | – | – | – | – | – | – | – | – | – | – | – | 70 | 70 | 0 | 0 | 0 | 0 | Plant response rating, Surinam Grass [3, 10]: 0; Plant response rating, Surinam Grass [3, 11]: 0; Plant response rating, Surinam Grass [3, 12]: 0; Plant response rating, Bromegrass, Downy [4, 10]: 0; Plant response rating, Bromegrass, Downy [4, 11]: 0; Plant response rating, Bromegrass, Downy [4, 12]: 5; Bromegrass, Downy plant response rating [4, 8]: 0; Plant response rating, Goosegrass [5, 10]: 0; Plant response rating, Goosegrass [5, 11]: 0; Plant response rating, Goosegrass [5, 12]: 0; Goosegrass plant response rating [5, 8]: 0
O=C1NCC(c2cccc(OC(F)(F)F)c2)C1C(=O)Nc1ccccc1F (stereo not shown) [Compound 69] | – | – | – | – | – | – | – | – | – | – | – | – | – | – | 75 | 85 | 0 | 0 | 40 | 40 | Surinam Grass plant response rating [3, 15]: 60; Plant response rating (scale of 0 to 100), Surinam Grass ([3]; Preemergence, 250 g ai/ha): 85; Bromegrass, Downy plant response rating [4, 15]: 0; Plant response rating (scale of 0 to 100), Bromegrass, Downy ([4]; Preemergence, 250 g ai/ha): 0; Goosegrass plant response rating [5, 15]: 20; Plant response rating (scale of 0 to 100), Goosegrass ([5]; Preemergence, 250 g ai/ha): 75
O=C1NCC(c2ccc(C(F)(F)F)cc2)C1C(=O)Nc1ccccc1F (stereo not shown) [Compound 231] | 0 | 10 | 10 | 0 | 0 | – | 55 | 20 | 20 | 10 | 0 | 0 | – | 0 | – | – | – | – | – | – | Plant response rating ([1]; Postemergence, 250 g ai/ha): 20; Plant response rating, Blackgrass ([1]; Preemergence, 125 g ai/ha): 15; Plant response rating ([2]; Postemergence, 250 g ai/ha): 25; Plant response rating, Field Violet ([2]; Preemergence, 125 g ai/ha): 10
